# Like-named read-outs stand apart in the source and are kept apart here.
# What was measured:
# D4M.3A cells = assay: Proliferation assay (cell count after 72 h), D4M.3A; format: cell-based, murine; conditions: Mus musculus, read-out: IC50 values
# Experimental: (§1) Cell culture: Murine primary melanoma […].3A cells were obtained from Dartmouth College, Hanover. […].3A cells were cultured in Advanced DMEM growth media supplemented with 5% FBS, 100 μg/mL streptomycin, 100 IU/mL penicillin, 12.5 IU/mL nystatin, and 1% GlutaMAXTM (Gibco, Waltham, MA, USA). Human metastatic melanoma 131/4-5B1 cells were obtained from University of Toronto, Canada, and were cultured in RPMI 1640 medium supplemented with 10% FBS, 100 μg/mL streptomycin, 100 IU/mL penicillin, 12.5 IU/mL nystatin, and 2 mM L-Glutamine (Biological Industries Ltd, Kibbutz Beit Haemek, Israel). Human primary melanoma A375 cells were obtained from ATCC and were cultured in RPMI 1640 medium supplemented with 10% FBS, 100 μg/mL streptomycin, 100 IU/mL penicillin, 12.5 IU/mL nystatin, and 2 mM L-Glutamine. […] Following 72 hours incubation, the cells were counted using a Z1 Coulter Counter (Beckman Coulter). […] Isobolograns and combination index: The interactions between DBF and TRM were evaluated by constructing isobolograms for different drugs ratios and calculating their combination index (CI).^51 First, the inhibitory concentration (IC) values of treatment with DBF, TRM, and their combinations were calculated from the proliferation assays. […]
# A375 cells = assay: Proliferation assay (cell count after 72 h), A375; format: cell-based; conditions: Homo sapiens, read-out: IC50 values
# Experimental: as §1
# melanoma patients = conditions: cited from earlier work
# [1] = in vivo; cited from earlier work
# pERK and ki67 in tumors = conditions: 30 mg/kg DBF daily, cited from earlier work
# [2] = system: PD-L1 expression in EMT6 cells; assay: PD-L1 expression in EMT6 cells by flow cytometry; format: cell-based, murine
# Experimental: PD-L1 expression after treatments with talazoparib: EMT6 murine mammary carcinoma cells (obtained from ATCC) were incubated with talazoparib (0.1 nM, 10 nM, and 100 nM) for 24-72 hours and then harvested using FACS buffer (protein levels). 1×10^6 cells were incubated with anti-PD-L1 at 1 μg/ml antibody concentration (Mouse PD-L1/B7-H1 Alexa Fluor® 647-conjugated Antibody; R & D Systems #FAB90781R) or isotype antibody (Rabbit IgG Alexa Fluor®647-conjugated Antibody, R & D Systems #IC1051R) for 1 hour on ice. The cells were washed twice with FACS buffer and the fluorescence intensity was measured by Attune NxT Flow Cytometer and analyzed by Kaluza software. All treatments were compared to the secondary antibody only or to the corresponding isotype control.
# PD-L1i blocking activity: In order to assess the PD-L1i small molecule inhibition activity, murine EMT6 cells were seeded in 24-well plate (2×10^4 cells/well). After 24 hours, the medium was replaced with medium containing PD-L1i (SM56; [Acúrcio et al. Journal for ImmunoTherapy of Cancer, 10(7), e004695 (2022)]) for 24-72 hours. The cells were then harvested with FACS buffer, washed and resuspended in FACS buffer. EMT6 cells (1×10^6) were incubated with anti-PD-L1 at 1 μg/ml antibody concentration (Mouse PD-L1/B7-H1 Alexa Fluor®647-conjugated Antibody; R & D Systems #FAB90781R) or isotype antibody (Rabbit IgG Alexa Fluor®647-conjugated Antibody, R & D Systems #IC1051R) for 1 hour on ice. Additionally, to evaluate synergistic activity of PD-L1i with talazoparib, EMT6 cells were treated with the combination of PD-L1i and talazoparib for 48 hours. Later, same antibody and incubation conditions described previously were followed. These experiments were reproduced trice, and the data represent the mean±SD.
# EMT6 cells = assay: Proliferation assay, EMT6; format: cell-based, murine; conditions: Mus musculus
# Experimental: (§2) Human MDA-MB-231 and MDA-MB-436, and murine 4T1 and EMT6 cells were obtained from the ATCC. EMT6, MDA-MB-231 and MDA-MB-436 cells were cultured in DMEM supplemented with 10% FBS, 100 IU/mL penicillin, 100 μg/mL streptomycin, 12.5 U/mL Nystatin, 2 mM L-glutamine. 4T1 cells were cultured in RPMI supplemented with 10% FBS, 100 IU/mL Penicillin, 100 μg/mL Streptomycin, 12.5 U/mL Nystatin, 2 mM L-glutamine, 1 mM sodium pyruvate and 10 mM HEPES Buffer. For MDA-MB-436, MDA-MB-23, 4T1 and EMT6, cells were seeded in 24-well plates (2.5×10^4, 2.5×10^4, 1×10^4, 2×10^3 cells/well, respectively) and incubated for 24 hours. Then, the cultured medium was replaced with a medium containing a serial dilution of talazoparib, talazoparib-loaded NPs or blank NPs (carrier only) for additional 72 hours. Untreated (control) cells were supplemented with fresh medium containing 0.1% DMSO. The cells were counted using a Z1 Coulter Counter (Beckman Coulter). Each treatment was assayed in triplicates, N=3.
# MDA-MB-436 cells = assay: Proliferation assay, MDA-MB-436; format: cell-based; conditions: Homo sapiens; MDA-MB-436 (BRCA-mutated), 72 hours
# Experimental: as §2
# 4T1 cells = assay: Proliferation assay, 4T1; format: cell-based, murine; conditions: Mus musculus; 4T1 (BRCA wild-type), 72 hours
# Experimental: as §2
# MDA-MB-231 cells = assay: Proliferation assay, MDA-MB-231; format: cell-based; conditions: Homo sapiens; MDA-MB-231 (BRCA wild-type), 72 hours
# Experimental: as §2
# [3] = system: mCherry-labeled EMT6 3D spheroids; assay: mCherry-labeled EMT6 3D spheroids sprouting; format: cell-based, murine; conditions: Mus musculus, compared to the control
# Experimental: Analysis of mCherry-labeled EMT6 3D spheroids sprouting: 3D spheroid of EMT6 cells (2000 cells/spheroid) were prepared in DMEM medium supplemented with 0.24 w/v % methyl cellulose. The cells were deposited in 25 μL droplets into the inner side of a 20 mm dish and incubated for 48 hours at 37° C. when the plate is facing upside down to allow for spheroid formation. The spheroids were then embedded in Matrigel®, seeded in a 96-well plate, and monitored for cell invasion into the Matrigel®. The 3D spheroids were treated with talazoparib (1 nM, 100 nM and 1 μM) and their sprouting in the Matrigel® was evaluated by measuring the % red area with ImageJ software.
# [4] = system: PD-L1 localizations in EMT6 cells; assay: dSTORM imaging of PD-L1 in EMT6 cells; format: cell-based, murine; conditions: increasing concentrations, 48 hours
# Experimental: dSTORM imaging of PD-L1 after exposure of EMT6 cells to talazoparib: EMT6 cells were seeded in Ibidi μ-slide 8 well glass bottom chambered coverslips at a density of 5000 cells per well. After 24 hours incubation, cells were treated with Talazoparib for 48 hours ([…]). After 48 hours cells were washed 1× with PBS and fixed using 3.7% formaldehyde solution for 10 minutes at room temperature. After fixation, cells were washed trice with PBS and incubated with 5% BSA solution overnight at 4° C. […] Between 6 and 10 cells were imaged for each condition. dSTORM images were analyzed with the Nikon NIS elements software (version 5.21.01). dSTORM localizations were detected using Gaussian fitting, with a minimum intensity threshold height of 150 for the 647 nm channel. Molecules detected in 5 consecutive frames were considered as a single blinking event, while molecules detected in more than 5 frames were discarded. […] The resulting x-y coordinates of the detected localizations were imported and run through a custom MATLAB scrip to quantify the localization density per cell. Each cell was manually selected by drawing an ROI around the cell contour (detected in the 488 channel). […]
# PD-L1 RNA in EMT6 cells = assay: PD-L1 mRNA in EMT6 cells by q-Real time PCR; format: cell-based, murine; conditions: 10 nM, 24-72 hours
# Experimental: q-Real time PCR: Total RNA was isolated from cultured cells using the Direct-zol RNA Miniprep Plus (Zymo Research), according to the manufacturer's instructions. Once isolated, one microgram of RNA was reverse transcribed to cDNA using qScript cDNA synthesis kit (Quantabio, MA, USA). The cDNA was further diluted (1:50 in DNase/RNase-Free Water) for the qPCR. PD-L1 mRNA levels were assessed by SYBR green real-time PCR (StepOne plus; Thermo Fisher Scientific, Waltham, MA, USA) using PerFecTa SYBR Green FastMix ROX (Quanta BioSciences) and the following custom primers: murine PD-L1: forward, 5′-[…]-3′, reverse, 5′-[…]-3′. GAPDH: forward, 5′-ATTCCACCCATGGAATTC-3′, reverse, 5′-[…]-′3.
smiles,measurement,setting,value
"CC(C)(C)c1nc(-c2cccc(NS(=O)(=O)c3c(F)cccc3F)c2F)c(-c2ccnc(N)n2)s1 [DBF, dabrafenib]",IC50,D4M.3A cells; 72 h,4.9 nM
same,IC50,"A375 cells; A-375, 72 h",13.6 nM
same,Overall survival (OS),melanoma patients,18.7 months
same,Progression-free survival (PFS),melanoma patients,8.8 months
same,Steady-state brain to plasma concentration ratio,[1],0.019±0.02
same,Inhibition of pERK in tumors,pERK and ki67 in tumors; 6 hours post-final dose,89%
same,Reduction in ki67 in tumors,pERK and ki67 in tumors; 6 hours post-final dose,28%
same,Duration of pERK reduction in tumors post-dose,pERK and ki67 in tumors,up to 18 hours
O=C1c2ccccc2C(=O)N1CNc1ccc(Oc2ccc(Cl)cc2)cc1 [SM56],Reduction of PD-L1 expression compared to untreated cells,"[2]; 10 μM PD-L1i alone, 48 hours",about 40%
same,PD-L1 expression over time,"[2]; 10 μM, 24-72 hours",reduction in PD-L1 expression in a time-dependent manner
"CC(=O)Nc1cccc(-n2c(=O)n(C3CC3)c(=O)c3c(Nc4ccc(I)cc4F)n(C)c(=O)c(C)c32)c1 [TRM, trametinib]",IC50,"D4M.3A cells; D4M.3A, 72 hours",8.6 nM
same,IC50,"A375 cells; A-375, A375, 72 hours",8.5 nM
same,Steady-state brain to plasma concentration ratio,[1],0.03±0.01
Cn1ncnc1[C@H]1c2n[nH]c(=O)c3cc(F)cc(c23)N[C@@H]1c1ccc(F)cc1 [talazoparib],IC50,"EMT6 cells; EMT6 (BRCA-mutated), 72 hours",10 nM
same,IC50,"EMT6 cells; EMT6 proliferation, NPs versus free drug (FIG. 32)",8 nM
same,IC50,MDA-MB-436 cells,2 nM
same,IC50,4T1 cells,58 nM
same,IC50,MDA-MB-231 cells,411 nM
same,inhibition at 1 µM,[3],70%
same,PD-L1 expression relative to untreated cells,"[2]; 10 nM talazoparib and/or 10 μM PD-L1i, 48 hours",3 folds
same,PD-L1 protein expression,"[2]; 10 nM, 24-72 hours",time-dependent increase in PD-L1 expression
same,PD-L1 protein expression,"[2]; increasing concentrations, 72 hours",induced PD-L1 expression in EMT6 cells in a dose-dependent manner
same,PD-L1 localizations and protein density (dSTORM),[4],increased number of PD-L1 localizations and higher PD-L1 protein density
same,PD-L1 RNA level,PD-L1 RNA in EMT6 cells,time-dependent increase in PD-L1 expression

# — patent US20250352490A1, “P-SELECTIN TARGETED NANOPARTICLES AND USES THEREOF” (Ramot at Tel-Aviv University Ltd., priority 2023, published 2025)
